The values below come from patent US12226458B2, “System for providing an up-to-date and long-acting or ultra-long-acting insulin dose guidance recommendation to treat diabetes mellitus” (Novo Nordisk A/S, priority 2018, dated 2025).

Data set [1] deals with insulin-naïve subjects with type 2 diabetes. Put plainly: BEGIN ONCE SIMPLE USE 26-week randomized treat-to-target trial: HbA1c / glycemic control. It counts as in vivo, human. As to conditions: for HbA1c change from baseline to Week 26 / HbA1c at Week 26: IDeg OD + metformin; for Patients achieving HbA1c<7% without confirmed hypoglycemia / Subjects achieving HbA1c<7.0% at end-of-trial: 26 weeks. The text has this:
(§1) This 26-week, multi-center, open-label, randomized, treat-to-target study compared the efficacy and safety of IDeg administered once daily in combination with metformin in insulin-naïve subjects with type 2 diabetes using two different patient-driven titration algorithms: a “Simple” algorithm (IDegSimple), with dose adjustments based on one pre-breakfast SMBG measurement (N=111) versus a “Step-wise” algorithm (IDegStep-wise), with adjustments based on three consecutive pre-breakfast SMBG values (N=111). IDeg was administered using the FlexTouch® insulin pen (Novo Nordisk A/S, Bagsværd, Denmark), with once-weekly dose titration in both groups.
The study was conducted according to the Declaration of Helsinki (2008) and ICH Good Clinical Practice (1996) guidelines, with prior approval by appropriate ethics committees and patient consent obtained in writing prior to the start of any study-related activities. Eligible participants included insulin-naïve men or women ≥18 years of age, with type 2 diabetes, HbA1c 7.0-10.0% (inclusive), and body mass index (BMI) ≤45.0 kg/m^2, who were treated with ≥1000 mg/day metformin alone or in combination with one or two other oral antidiabetic medications (OADs) (including a sulfonylurea [SU] or glinide, dipeptidyl peptidase-4 [DPP-4] inhibitors, α-glucosidase inhibitors or thiazolidinediones [TZDs]), with unchanged dosing for ≥12 weeks prior to randomization. […] Subjects could be withdrawn from the trial due to withdrawal of consent, not fulfilling inclusion/exclusion criteria (randomized in error), non-compliance, or at the discretion of the investigator due to a safety concern. Subjects who were withdrawn after randomization were not to be replaced. This trial is registered at clinicaltrials.gov: NCT01326026.
(§2) HbA1c was analyzed using a Bio-Rad high-performance liquid chromatography method at Visits 1 (screening), 2 (randomization), 14 (Week 12) and 28 (Week 26). Fasting plasma glucose (FPG) blood samples were assayed using a hexokinase-UV method at Visits 2, 14 and 28. At the first visit, subjects were provided with a glucose meter for SMBG measurement and instructions for use; blood glucose was measured with test strips calibrated to plasma glucose to obtain PG-equivalent values presented in this report. Subjects performed SMBG measurements before breakfast weekly after randomization and also performed an 8-point SMBG profile prior to Visits 2, 14 and 28.

For data set [2] the test system is unchanged. As to the kind of experiment: BEGIN ONCE SIMPLE USE trial: fasting plasma glucose (hexokinase-UV). It counts as in vivo, human.
Excerpt: as §1, §2

Data set [3] shares this test system. As to conditions: in vivo.
Excerpt: This was a multinational (conducted in the US, Spain, Finland, and Germany), Phase 3b, multi-center, two-armed, parallel group, open-label, randomized, treat-to-target study that compared the efficacy and safety of IDeg OD [IDeg 100 U/mL, FlexTouch® pen, Novo Nordisk A/S, Bagsværd, Denmark], adjusted using two different titration algorithms in combination with metformin. The trial consisted of a 26-week period; total study duration was approximately 28 weeks (including 1 week for screening and a 7-day follow-up period). […]
Adverse events (AEs) and hypoglycemic episodes were documented throughout the study, with confirmed hypoglycemia defined as episodes of severe hypoglycemia (requiring assistance from another person) and episodes with PG value <3.1 mmol/L (56 mg/dL). […] Laboratory safety variables, insulin dose and body weight were recorded at pre-specified intervals.
Change from baseline in HbA1c after 26 weeks was analyzed using an analysis of variance (ANOVA) method with treatment, region, sex and antidiabetic therapy at screening as fixed factors, and age and baseline HbA1c as covariates. […] Change in FPG and change in body weight were analyzed using an ANOVA model similar to that used for the primary analysis, but with the relevant baseline value as covariate for each measure. […]
For data set [4] the test system is unchanged. As to conditions: in vivo. This is another data set of the same source.
Excerpt: (§3) This was a multinational (conducted in the US, Spain, Finland, and Germany), Phase 3b, multi-center, two-armed, parallel group, open-label, randomized, treat-to-target study that compared the efficacy and safety of IDeg OD [IDeg 100 U/mL, FlexTouch® pen, Novo Nordisk A/S, Bagsværd, Denmark], adjusted using two different titration algorithms in combination with metformin. The trial consisted of a 26-week period; total study duration was approximately 28 weeks (including 1 week for screening and a 7-day follow-up period). After discontinuing all OADs other than metformin, subjects were randomized 1:1 by an interactive voice/web response system (IV/WRS) to IDegSimple or IDegStep-wise insulin self-titration algorithms, as defined below. Subjects were instructed to self-titrate in accordance with their respective algorithms and continue with their pre-trial metformin dose. At randomization, Week 4 and Week 12, subjects in both treatment arms received diet and exercise counselling by an HCP.
(§4) Adverse events (AEs) and hypoglycemic episodes were documented throughout the study, with confirmed hypoglycemia defined as episodes of severe hypoglycemia (requiring assistance from another person) and episodes with PG value <3.1 mmol/L (56 mg/dL). Nocturnal confirmed hypoglycemic episodes were those occurring between 00:01 h and 05:59 h (inclusive). Laboratory safety variables, insulin dose and body weight were recorded at pre-specified intervals.
(§5) Treatment-emergent AEs, hypoglycaemic episodes, laboratory parameters, physical examination, electrocardiogram (ECG), fundoscopy/fundusphotography, vital signs, PRO (Device-Specific questionnaires I and II) and insulin dose were summarized with descriptive statistics.
(§6) Treatment-emergent events occurring after first exposure and no later than 7 days after last exposure. Safety analysis set. n number of patients with events, % proportion of patients with events, E number of events, R number of events per 100 patient-years.
Data set [5] concerns people with Type 2 diabetes. The conditions noted are these: in vivo; cited from earlier work.
For data set [6], the system named is insulin-naïve subjects with type 2 diabetes. As to the kind of experiment: BEGIN ONCE SIMPLE USE trial: adverse events. The conditions noted are these: IDegStep-wise arm; 154 days after starting trial drug, liver metastasis, considered unlikely related to treatment.
Excerpt: as §3, §4, §5, §6
In data set [7] the test system is patients with type 2 diabetes. As to conditions: self-adjusted dose every 3 days from mean of previous 3 days' SMBG; 6 months; cited from earlier work.
The test system of data set [8] is people with Type 2 diabetes. The conditions noted are these: INSIGHT; initial dose 10 units, increased by 1 unit each day until FPG ≤5.5 mmol/liter; cited from earlier work.

“LysB29(Nε-hexadecandioyl-γ-Glu) des(B30) human insulin [IDeg]”: the “HbA1c change from baseline to Week 26” value in data set [1] (IDegSimple arm (Simple titration algorithm)) is −1.09%. Also, in data set [1] (IDegSimple arm), the “Patients achieving HbA1c<7% without confirmed hypoglycemia” value is 40.6%, the “Subjects achieving HbA1c<7.0% at end-of-trial” value was found to be 56.8% and the “HbA1c at Week 26” value came out at 7.0%. For the same substance, in data set [1] (IDegStep-wise arm (Step-wise titration algorithm)), the “HbA1c change from baseline to Week 26” value is reported as −0.93%. For the same substance, in data set [1] (IDegStep-wise arm), the “Patients achieving HbA1c<7% without confirmed hypoglycemia” value is 34.6%, the “Subjects achieving HbA1c<7.0% at end-of-trial” value is on record as 41.4% and the “HbA1c at Week 26” value is 7.2%. For the same substance, in data set [1] (Week 26, 95% CI [−0.39, 0.07]), the “Estimated treatment difference (IDegSimple−IDegStep-wise) in HbA1c change” value is −0.16 %-points. Also, the “Non-inferiority of IDegSimple to IDegStep-wise in lowering HbA1c” value in data set [1] (Week 26, non-inferiority limit 0.4%) was “non-inferior”. For the same substance, the “Fasting plasma glucose at Week 26” value in data set [2] (IDegSimple arm) was 6.1 mmol/L. Moreover, the “Fasting plasma glucose at Week 26” value in data set [2] (IDegStep-wise arm) amounted to 6.8 mmol/L. For the same substance, the “Estimated treatment difference (IDegSimple−IDegStep-wise) in FPG” value in data set [2] (Week 26, 95% CI [−1.30, 0.17]) is -0.57 mmol/L. Moreover, the Severe hypoglycemic episodes result in data set [3] is “One”. For the same substance, in data set [4], the “Headache: N number of patients with events” value amounted to 8, the SAE neoplasm event result is given as “astrocytoma”, the “SAEs: E number of events” value worked out at 8 and the “SAEs: R number of events per 100 patient-years” value is reported as 15 events per 100 patient-years. Besides, the “Confirmed and nocturnal confirmed hypoglycemia rates with IDeg OD versus comparator insulin glargine” value in data set [5] is “lower than or similar to”. In addition, in data set [6], the Deaths result is listed as “One”.

As to insulin detemir, the “HbA1c versus standard-of-care, physician-driven adjustments” value in data set [7] is recorded as “significantly lower HbA1c”.

As for insulin glargine, in data set [8], the “End HbA1c” value is recorded as 7.0%.
